Data from patent US6511811B1, “Protein kinase C antagonist related to insulin receptor” (The Regents of the University of California, priority 1995, dated 2003).
Ends that are not written are not given here.

Assays:
[1] = system: insulin receptor kinase activity; details: incubation of cells with the inhibitor; Mosthaf et al.; cited from earlier work
HIRcB cells [2] = experiment: Insulin-stimulated DNA synthesis (BrDU incorporation) with PKC inhibitors; format: cell-based, Rat; details: microinjection of the inhibitor peptide, high glucose 25 mM; FIG. 11
Procedure: HIRcB or ΔCT cells were cultured on acid-washed glass coverslips, grown to semi-confluence, and then starved in serum-free DME with 1 mM glucose. The peptide was dissolved in microinjection buffer containing 5 mM NaPO4 and 100 mM KCl, pH 7.4. The cells were microinjected with the PKC inhibitor peptide using glass capillary needles. Approximately 10 femtoliters of this solution was introduced into each cell. The injection included 1×10^6 molecules of IgG as marker for microinjection.
Two hours after microinjection, cells were incubated with BrDU plus various concentrations of growth factors for 16 h at 37° C. The cells were fixed with acid alcohol (90% ethanol, 5% acetic acid) for 20 min at 22° C., and then incubated with mouse monoclonal anti-BrDU antibody for 1 h at 22° C. […] After coverslips were mounted, the cells were analyzed and photographed with an Axiophot fluorescence microscope (Zeiss). […]
The effects of high glucose upon insulin-induced DNA synthesis were examined by first exposing cells to high glucose for 1 h, and then to insulin and BrDU for an additional 18 h. High glucose decreased DNA synthesis in insulin-stimulated cells by 30%, as measured by BrDU incorporation (FIG. 10).

HIRcB cells [3] = experiment: Microinjection of insulin receptor-derived peptides, insulin-stimulated DNA synthesis (BrDU incorporation); format: cell-based, Rat; details: FIG. 13; for Insulin-stimulated DNA synthesis: high glucose (25 mM); for Insulin-stimulated DNA synthesis / DNA synthesis in insulin-stimulated cells: peptide 10 mM microinjected, 100 ng/ml insulin; for DNA synthesis in insulin-stimulated cells: normal glucose (5 mM)
Procedure: HIRcB cells were grown to sub-confluence on glass coverslips in D-MEM medium containing normal (5 mM) or high (25 mM) glucose and rendered quiescent by serum deprivation for 24 h. Synthetic cyclo-peptides were derived from the human insulin receptor, containing sequence […] (SEQ ID NO:5) (Serine-1035) and […] (SEQ ID NO:1) (Serine-1270) were synthesized using methods well known in the art. The peptides were dissolved in microinjection buffer containing 5 mM NaPO4 and 100 mM KCl, pH 7.2, to a final concentration of 10 mM. All microinjected reagents contained rabbit IgG (5 mg/ml) to allow the identification […] cells. Samples were microinjected into the cell cytoplasm using an automated microinjection system at a typical needle pressure of about 100 hectopascals resulting in the introduction of 10^5 molecules of IgG.
Approximately 1 h after microinjection, the cells were stimulated with 100 ng/ml insulin and […] BrDU was added. Cells were incubated at 37° C. for an additional 16 h, and then fixed and stained using a monoclonal anti-BrDU antibody. Injected cells were identified with fluorescein isothiocyanate-conjugated donkey anti-rabbit IgG. Nuclear BrDU incorporation was detected with tetramethylrhodamine isothiocyanate-conjugated donkey anti-mouse IgG. The cells were analyzed by fluorescence microscopy.

insulin receptor = experiment: 32P labelling and two-dimensional tryptic phosphopeptide analysis of insulin receptor; format: cell-based, human; details: stimulation of 32P-labelled HIRcB cells; FIG. 8
Procedure: HIRcB cells were serum-starved for 16 h and then incubated in phosphate-free DMEM containing 2 mCi/ml ^32P-orthophosphate for 3 h. The cells were then stimulated with high glucose (25 mM) or insulin as indicated. The cells were lysed, and the insulin receptor was immunoprecipitated using […] antibody 83-14 as described. The washed immunoprecipitates were analyzed by SDS electrophoresis. The labeled β-subunit was visualized by autoradiography, excised from the gels and recovered by electroelution.
Polyacrylamide-gel pieces containing ^32P-labeled IR and IRS-1 following in vitro phosphorylation were electroeluted in 20 mM Tris-HCl, pH 8.0, 2 mM EDTA, 0.1% SDS, and 0.1% 2-mercaptoethanol for 4 h. Eluted protein was precipitated with four volumes of acetone at −80° C. for 60 min followed by centrifugation at room temperature for 10 min at 10,000 g. The pellet was dried and digested with 10 μg of TPCK-treated trypsin (Worthington Diagnostic Systems, Freehold, N.J.) in 100 μl of 100 mM N-ethylmorpholine acetate (NMA), pH 8.2, for 24 h at 37° C. A further 10 μg of TPCK-treated trypsin was added and digestion continued for 12 h. The peptides were lyophilized, resuspended with water, and re-lyophilized at least three times. The ^32P-labeled tryptic peptides were then resuspended in 5 μl of electrophoresis buffer and spotted onto thin layer cellulose plates. […]

Row | Compound | Effect on hyperglycemia-induced inhibition of insulin receptor kinase activity [1] | Insulin-stimulated DNA synthesis (HIRcB cells [3]) | DNA synthesis in insulin-stimulated cells (HIRcB cells [3]) | other results
1 | CC1CNCCN1S(=O)(=O)c1cccc2cnccc12 (stereo not drawn) [H7] | is inhibited |  |  | 
2 | RFARKGALRQKNV [peptide 19-31] |  |  |  | Reversal of high glucose inhibition of insulin-stimulated DNA synthesis (BrDU incorporation) (HIRcB cells [2]): partially reversed inhibition of DNA synthesis
3 | polymyxin B | is inhibited |  |  | 
4 | KTVNESASLRE (also: cyclized; listed as Homo sapiens) [Ser-1035] |  | significantly increased insulin-stimulated DNA synthesis | slightly increased DNA synthesis | 
5 | DDLHPSFPEVS (also: cyclized; listed as Homo sapiens) [Ser-1270] |  | significantly increased insulin-stimulated DNA synthesis | slightly increased DNA synthesis | Increase in DNA synthesis compared between the two injected peptides (HIRcB cells [3]; normal and high glucose, in each instance): greater than in Ser-1035 peptide-injected cells
6 | CCCCCCCCCCCCCC(=O)O[C@@H]1[C@@H](C)[C@@]2(O)[C@@H](C=C(CO)C[C@]3(O)C(=O)C(C)=C[C@@H]23)[C@@H]2C(C)(C)[C@]12OC(C)=O [Phorbol ester] |  |  |  | Increase of insulin receptor phosphorylation (insulin receptor): 1.5 fold
